Source: PubChem BioAssay (NCI)
Several values for one entry are separate records, joined by “and”; a condition that tells them apart may be missing. Identical values can stand only once.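 Assay format: 96-well plates, 48-hour exposure. Abbreviation: GI50, concentration required for 50% inhibition of growth. Definition used: TGI = concentration required for complete inhibition of growth.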

How the values were obtained:
Experiment in all cases: NCI-60 cell line screen, 48 h
[1] = test system: T-47D breast
[2] = test system: MALME-3M melanoma
[3] = test system: SK-OV-3 ovarian
[4] = test system: NCI-H23 lung
[5] = test system: SF-295 CNS
[6] = test system: SF-268 CNS
[7] = test system: COLO 205 colon
[8] = test system: RXF 393 renal
[9] = test system: SK-MEL-5 melanoma
[10] = test system: MDA-MB-231 breast

| Structure (SMILES) | TGI [1] | TGI [2] | TGI [3] | TGI [4] | TGI [5] | TGI [6] | TGI [7] | TGI [8] | TGI [9] | TGI [10] | GI50 [1] | GI50 [2] | GI50 [3] | GI50 [4] | GI50 [5] | GI50 [6] | GI50 [7] | GI50 [8] | GI50 [9] | GI50 [10] |
| --- | --- | --- | --- | --- | --- | --- | --- | --- | --- | --- | --- | --- | --- | --- | --- | --- | --- | --- | --- | --- |
| O=C(NO)c1ccc(C(=O)NO)cc1 | > 100 µM | 51.4 µM | 87.2 µM | > 100 µM | > 100 µM | > 100 µM | > 100 µM | > 100 µM | > 100 µM | > 100 µM | – | – | – | – | – | – | – | – | – | – |
| Cn1cc(-c2cc3c(Nc4ccc(CC(=O)Nc5cc(C(C)(C)C)on5)cc4)ncnc3[nH]2)cn1 | 6.12 µM and 2.19 µM | 2.36 µM and 1.75 µM | 6.01 µM and 6.84 µM | 3.49 µM and 2.51 µM | 6.21 µM and 6.2 µM | 1.67 µM and 1.18 µM | 1.21 µM and 1.65 µM | 1.88 µM and 1.48 µM | 4.77 µM and 4.43 µM | 5.17 µM and 8.35 µM | 0.315 µM and 0.289 µM | 0.615 µM and 0.354 µM | 1.43 µM and 2.02 µM | 0.811 µM and 0.449 µM | 1.64 µM and 1.32 µM | 0.444 µM and 0.348 µM | 0.364 µM and 0.354 µM | 0.723 µM and 0.461 µM | 1.4 µM and 1.31 µM | 0.797 µM and 0.786 µM |
| CC1OCC2OC(C)OC(C3C4=C(CC(C)(C)CC4=O)OC4=C3C(=O)CC(C)(C)C4)C2O1 (stereo not given) | > 100 µM | > 100 µM | > 100 µM | > 100 µM | > 100 µM | > 100 µM | > 100 µM | > 100 µM | > 100 µM | > 100 µM | – | – | – | – | – | – | – | – | – | – |
| CC1(C)CCC(S(=O)(=O)c2ccc3c(c2)/C(=N\O)c2cc(S(=O)(=O)N4CCC(O)(c5cccc(C(F)(F)F)c5)CC4)ccc2-3)CC1 | 0.0414 µM | 0.053 µM | 0.0593 µM | 1.37 µM | 0.11 µM | 0.0429 µM | 0.0455 µM | 0.185 µM | 0.18 µM | 0.0438 µM | 0.0192 µM | 0.0216 µM | 0.0238 µM | 0.118 µM | 0.0272 µM | 0.0198 µM | 0.0208 µM | 0.053 µM | 0.0454 µM | 0.0217 µM |
| O=C(c1ccccc1)c1ccc(-c2ccc(O)cc2)cc1 | 35.6 µM | 34.9 µM | > 71.6 µM | 42.7 µM | 10.5 µM | 57.3 µM | 45.9 µM | 33.2 µM | 11.8 µM | 37.6 µM | 3.75 µM | 0.803 µM | 14.8 µM | 6.16 µM | 2.43 µM | 5.85 µM | 19.4 µM | 7.93 µM | 1.05 µM | 6.08 µM |
| CN(C(=O)C1CCCCC1)c1ccccc1I(=O)=O | 44.2 µM | 30.9 µM | > 100 µM | > 100 µM | > 100 µM | > 100 µM | 29.8 µM | > 100 µM | 73.8 µM | > 100 µM | 16.4 µM | 14.6 µM | 32.4 µM | 45.2 µM | 36.5 µM | 36.8 µM | 14.6 µM | 68.5 µM | 20.3 µM | 70 µM |
| OCC1SC(n2cnc3cncnc32)C(O)C1O (stereo not given) | > 100 µM | > 100 µM | > 100 µM | > 100 µM | > 100 µM | > 100 µM | > 100 µM | > 100 µM | > 100 µM | > 100 µM | > 100 µM | > 100 µM | > 100 µM | > 100 µM | > 100 µM | > 100 µM | > 100 µM | > 100 µM | > 100 µM | > 100 µM |
